As usually defined, the IC50 is the concentration that gives 50% inhibition.

Experimental findings from ChEMBL document CHEMBL4808238, “Small Molecule Inhibitors of KRAS Mutant as a Therapeutic Strategy for the Treatment of Cancer” (ACS Med Chem Lett, 2021) are described below.

This assay has as its target GTPase KRas (Homo sapiens, UniProt P01116, G12C). Put plainly: Inhibition of biotinylated KRAS G12C mutant (unknown origin) assessed as inhibition of SOS-catalyzed nucleotide exchange preincubated for 60 mins followed by addition of human recombinant SOS protein and unlabeled GTP and measured after 60 mins by TR-FRET analysis. On the technique in general: TR-FRET usually uses a lanthanide donor and a delayed reading to cut background.

Chain of GTPase KRas (P01116 whole entry G12C): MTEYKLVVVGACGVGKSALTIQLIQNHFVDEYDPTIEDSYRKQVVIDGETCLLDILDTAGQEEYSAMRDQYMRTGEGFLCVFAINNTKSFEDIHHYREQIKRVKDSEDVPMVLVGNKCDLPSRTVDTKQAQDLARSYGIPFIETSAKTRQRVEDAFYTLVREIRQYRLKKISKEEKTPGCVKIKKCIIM

Take `C=CC(=O)N1CCN(c2cc(C(=O)NC3(C)CCCNC3)nc3c2CCN(c2cccc4cccc(C)c24)C3)C[C@@H]1CC#N` (stereo partly specified): the concentration for half-maximal inhibition (IC50) is 5.4 nM.
The figure for `C=CC(=O)N1CCN(c2cc(C(=O)N[C@@H]3CCC[C@H]3N(C)C)nc3c2CCN(c2cccc4cccc(C)c24)C3)C[C@@H]1CC#N` is 1 nM; for `C=C(F)C(=O)N1CCN(c2cc(C(=O)N[C@H](C)CN(C)C)nc3c2CCN(c2cccc4cccc(C)c24)C3)C[C@@H]1CC#N` it is 8.3 nM; for `C=CC(=O)N1CCN(c2cc(C(=O)N[C@H](C)CN3CC(C)(O)C3)nc3c2CCN(c2cccc4cccc(C)c24)C3)C[C@@H]1CC#N` it is 2.2 nM.
On to `C=CC(=O)N1CCN(c2cc(C(=O)NCC3CCCCN3)nc3c2CCN(c2cccc4cccc(C)c24)C3)C[C@@H]1CC#N` (stereo partly specified), for which the IC50 was 8.3 nM.
As for `C=CC(=O)N1CCN(c2cc(C(=O)NC[C@H]3CCCN3)nc3c2CCN(c2cccc4cccc(C)c24)C3)C[C@@H]1CC#N`, the 50% inhibitory concentration (IC50) was 6.2 nM.
For the compound `C=CC(=O)N1CCN(c2cc(C(=O)N[C@H](C)CN(C)C)nc3c2CCN(c2c(Cl)c(C)cc4[nH]ncc24)C3)C[C@@H]1CC#N`, the IC50 stood at 0.9 nM.
Consider `C=C(F)C(=O)N1CCN(c2cc(C(=O)NC(C)CN3CCC(C)(O)C3)nc3c2CCN(c2cccc4cccc(C)c24)C3)C[C@@H]1CC#N` (stereo partly specified), for which the IC50 came to 5 nM.
With `C=CC(=O)N1CCN(c2cc(C(=O)NC(C)CN3CCC(C)(O)C3)nc3c2CCN(c2cccc4cccc(C)c24)C3)C[C@@H]1CC#N` (stereo in doubt; 75), the half-inhibitory concentration (IC50) was found to be 7.2 nM.
`C=CC(=O)N1CCN(c2cc(C(=O)NC(C)CN3CCC(C)(O)C3)nc3c2CCN(c2cccc4cccc(C)c24)C3)C[C@@H]1CC#N` (stereo in doubt; 76): the IC50 was determined as 6.2 nM.
`C=CC(=O)N1CCN(c2cc(C(=O)NC3(CC)CCNC3)nc3c2CCN(c2cccc4cccc(C)c24)C3)C[C@@H]1CC#N` (stereo partly specified): the IC50 was 4.5 nM.
